Data as given in patent US20160264925A1, “Reagents for Lysis of Bacterial Cells” (Roche Diagnostics Operations, Inc., priority 2009, published 2016).

Tests used:
[1] = test system: Escherichia coli BMTU 3294; experiment: Lysis of microbial cells in suspension, microscopic assessment (SYTO 9 staining): Gram-negative; assay type: cell-based; settings: for lysis of Gram-negative cell walls, summary in words: reagent and concentration as in Tables 1 and 2 (Example 4)
Protocol: (§1) Cell suspensions containing between about 10^7 and about 10^8 cells/ml were prepared.
(§2) The LIVE/DEAD® BacLight Bacterial Viability Kits supplied by Invitrogen utilize mixtures of the SYTO® 9 green-fluorescent nucleic acid stain (Invitrogen) and the red-fluorescent nucleic acid stain, propidium iodide. These stains differ both in their spectral characteristics and in their ability to penetrate healthy bacterial cells. When used alone, the SYTO® 9 stain generally labels all bacteria in a population—those with intact membranes and those with damaged membranes. In contrast, propidium iodide penetrates only bacteria with damaged membranes, causing a reduction in the SYTO® 9 stain fluorescence when both dyes are present.
(§3) Each mixture was incubated for 15 min at 56° C.
(§4) For the lysis experiments, all possible combinations of lysis buffers L1.1 to L11.1 with cell suspensions (A), (B), and (C) were examined.
(§5) An incubated cell suspension with bacteria was scored as a “positive” lysate if in the incubated mixture SYTO® 9 stainable morphological structures corresponding to the respective bacterial cells were not detectable. Otherwise, when SYTO® 9 stainable morphological structures were still present, the incubated cell suspension was scored as “negative”. In an analogous way, a cell suspension with yeast cells was scored, however based on Calcofluor™ White M2R staining.
(§6) In each experiment a direct comparison was made using the fluorescent label on an untreated but similarly diluted cell suspension as a reference. In order to exclude any influence of a compound in the lysis reagents on fluorescence, any presence or absence of morphological structures corresponding to the respective microbial cells was verified using light microscopy.

[2] = test system: Staphylococcus carnosus BMTU 7329; experiment: Lysis of microbial cells in suspension, microscopic assessment (SYTO 9 staining): Gram-positive; assay type: cell-based; settings: for lysis of Gram-positive cell walls, summary in words: reagent and concentration as in Tables 1 and 2 (Example 4)
Protocol: as §1, §2, §3, §4, §5, §6

[3] = about 2.25 M in the mixture with the bacterial suspension

Compound	lysis of Gram-negative cell walls, summary in words [1]	lysis of Gram-positive cell walls, summary in words [2]	destruction of Gram-negative cell walls ([1]; 247.5 mM (or lower))	destruction of Gram-positive cell walls ([2]; 247.5 mM (or lower))	destruction of Gram-negative cell walls ([1]; 375 mM in the mixture)	destruction of Gram-negative cell walls [1, 3]	destruction of Gram-positive cell walls ([2]; 375 mM in the mixture)	destruction of Gram-positive cell walls [2, 3]	also measured
1-butyl-3-methyl-imidazolium-2(2-methoxyethoxy)ethylsulfate [ECOENG™41M]	destroy the cell walls of both Gram-positive and Gram-negative cells	destroy the cell walls of both Gram-positive and Gram-negative cells	–	–	–	–	–	–	concentration required to destroy Gram-negative cell walls together with Gram-positive, relative to BMIM-SCN (about 2.25 M in the mixture) ([1]; lysis reagent L2.1): a quarter of this concentration; concentration required to destroy Gram-positive cell walls, relative to BMIM-SCN (about 2.25 M in the mixture) ([2]; lysis reagent L2.1): a quarter of this concentration
1-butyl-3-methyl-imidazolium-octylsulfate	–	–	falls short of destroying bacterial cell walls	falls short of destroying bacterial cell walls	–	–	–	–	destruction of Gram-negative cell walls ([1]; higher than 247.5 mM and up to 375 mM): capable of destroying the cell walls of Gram-negative bacteria; destruction of Gram-positive cell walls ([2]; any concentration tested): no concentration was found
1-butyl-3-methyl-imidazolium-thiocyanate [BMIM-SCN]	destroy the cell walls of both Gram-positive and Gram-negative cells	destroy the cell walls of both Gram-positive and Gram-negative cells	–	–	falls short of destroying bacterial cell walls	destroyed	falls short of destroying bacterial cell walls	destroyed	destruction of Gram-negative cell walls ([1]; about 562.5 mM in the mixture): lysed
N#CS.N=C(N)N [GuaSCN, Guanidine thiocyanate, reference compound]	–	–	–	–	ineffective	destroyed	ineffective	destroyed	–
Cc1ccc(S(=O)(=O)[O-])cc1.Cc1ccc(S(=O)(=O)[O-])cc1.Cn1cc[n+](CCCC[n+]2ccn(C)c2)c1 [MITS, 1-methyl-1-[4-(3-methyl-3H-imidazol-1-ium)-but-1-yl]-3H-imidazolium-di(toluylsulfate)]	–	–	neither Gram-negative nor Gram-positive cell walls were destroyed	neither Gram-negative nor Gram-positive cell walls were destroyed	–	–	–	–	destruction of Gram-positive cell walls ([2]; 247.5 mM increased by about 50% or more): destruction of Gram-positive cell walls
